Experimental data reported in ChEMBL document CHEMBL1147983.
pIC50: −log10 of the molar value.

What was measured:
[1] = biological target: Epidermal growth factor receptor (Homo sapiens, UniProt P00533); test: Inhibition of EGFR
Aurora kinase A = biological target: T1, Aurora kinase A (Homo sapiens, UniProt O14965)
T1 sequence (O14965 whole entry): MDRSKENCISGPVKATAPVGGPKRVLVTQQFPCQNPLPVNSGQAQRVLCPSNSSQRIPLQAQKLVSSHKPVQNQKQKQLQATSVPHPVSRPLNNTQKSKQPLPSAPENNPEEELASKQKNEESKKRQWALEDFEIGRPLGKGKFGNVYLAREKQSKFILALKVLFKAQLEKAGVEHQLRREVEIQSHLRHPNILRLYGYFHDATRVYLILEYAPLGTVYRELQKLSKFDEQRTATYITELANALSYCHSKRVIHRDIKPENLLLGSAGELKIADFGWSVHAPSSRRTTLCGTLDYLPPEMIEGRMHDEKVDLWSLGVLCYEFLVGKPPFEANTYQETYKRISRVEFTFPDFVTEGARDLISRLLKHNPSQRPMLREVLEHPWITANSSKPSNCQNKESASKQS

Chain of Epidermal growth factor receptor (P00533 whole entry): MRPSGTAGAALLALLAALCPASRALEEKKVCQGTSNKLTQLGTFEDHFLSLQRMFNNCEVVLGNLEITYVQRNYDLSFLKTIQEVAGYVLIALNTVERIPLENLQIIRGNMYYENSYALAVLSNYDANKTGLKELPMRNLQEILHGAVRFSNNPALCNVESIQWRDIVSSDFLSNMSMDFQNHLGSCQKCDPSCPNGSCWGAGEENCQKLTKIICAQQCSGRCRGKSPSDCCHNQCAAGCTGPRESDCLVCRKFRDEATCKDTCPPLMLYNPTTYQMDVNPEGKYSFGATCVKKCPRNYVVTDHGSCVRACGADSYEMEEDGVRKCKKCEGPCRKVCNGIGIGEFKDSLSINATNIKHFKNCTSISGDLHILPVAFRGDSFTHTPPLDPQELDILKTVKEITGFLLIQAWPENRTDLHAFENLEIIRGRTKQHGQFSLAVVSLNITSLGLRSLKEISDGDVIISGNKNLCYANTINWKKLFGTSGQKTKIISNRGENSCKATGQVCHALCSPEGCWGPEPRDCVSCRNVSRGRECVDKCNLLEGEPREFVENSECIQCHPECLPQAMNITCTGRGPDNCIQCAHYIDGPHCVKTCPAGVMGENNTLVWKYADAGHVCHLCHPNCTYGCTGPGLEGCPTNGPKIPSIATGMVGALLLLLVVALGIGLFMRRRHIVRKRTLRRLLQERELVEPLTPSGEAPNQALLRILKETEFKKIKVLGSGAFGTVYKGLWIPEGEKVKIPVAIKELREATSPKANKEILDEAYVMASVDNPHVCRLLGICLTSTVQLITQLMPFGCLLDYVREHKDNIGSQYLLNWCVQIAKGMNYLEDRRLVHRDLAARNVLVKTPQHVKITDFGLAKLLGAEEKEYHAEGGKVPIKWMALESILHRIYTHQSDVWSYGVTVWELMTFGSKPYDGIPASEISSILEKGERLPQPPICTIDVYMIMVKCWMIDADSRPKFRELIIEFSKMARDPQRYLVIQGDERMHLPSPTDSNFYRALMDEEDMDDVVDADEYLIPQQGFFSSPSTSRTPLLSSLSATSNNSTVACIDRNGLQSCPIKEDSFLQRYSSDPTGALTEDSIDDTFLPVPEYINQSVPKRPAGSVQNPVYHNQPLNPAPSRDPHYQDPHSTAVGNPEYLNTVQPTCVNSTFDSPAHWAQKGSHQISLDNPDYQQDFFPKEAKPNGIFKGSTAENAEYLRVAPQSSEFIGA

O=C(Nc1cccc(Nc2ccnc(Nc3cccc(C(F)(F)F)c3)n2)c1)C1CC1 showed a pIC50 [1] of under 5.00 and a pIC50 (Aurora kinase A) of 6.03.
O=C(Nc1cccc(Nc2cc(Nc3cccc(C(F)(F)F)c3)ncn2)c1)C1CC1 gave a pIC50 [1] of 7.68 and a pIC50 (Aurora kinase A) of under 5.00.
O=C(Nc1cccc(Nc2nccc(Nc3cccc(C(F)(F)F)c3)n2)c1)C1CC1 [ANILINOPYRIMIDINE1] gave a pIC50 [1] of under 5.00.
